Target: T1, human MAGL (His-hMAGL) (Homo sapiens, UniProt Q99685)
T1 construct: made in house; host or cells: Escherichia coli BL21(DE3)
T1 sequence (Q99685 1-303): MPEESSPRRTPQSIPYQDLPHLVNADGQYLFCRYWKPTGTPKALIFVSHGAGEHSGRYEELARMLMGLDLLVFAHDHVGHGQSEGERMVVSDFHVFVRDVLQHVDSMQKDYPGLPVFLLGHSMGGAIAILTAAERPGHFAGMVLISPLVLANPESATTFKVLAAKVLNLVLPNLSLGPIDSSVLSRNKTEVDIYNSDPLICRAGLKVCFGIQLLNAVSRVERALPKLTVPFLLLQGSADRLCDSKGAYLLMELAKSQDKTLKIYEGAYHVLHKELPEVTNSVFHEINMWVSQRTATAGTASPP
Test: Measurement of MAGL inhibitory activity by absorbance
Type: biochemical
Details: 10 μM test compound; substrate p-nitrophenyl acetate, absorbance at 405 nm
Excerpt: (1) Cloning of Human MGLL Encoding MAGL Protein and Construction of Expression Plasmid
Human MGLL cDNA was obtained by PCR using human ORF Clone (DNAForm; Clone ID: 100004585) as a template. For PCR, two kinds of primers: […]
The obtained PCR product was digested with Bam HI and Not I (Takara Bio Inc.), inserted into the Bam HI/Not I site of pET21HH(V) (pET21a (Novagen) inserted with His x6 and TEV Protease recognition sequence) by using Ligation High (Toyobo Co., Ltd.), and introduced into ECOS™ JM109 (Nippon Gene Co., Ltd.), whereby expression plasmid pET21HH(V)/His-hMGLLv2 for Escherichia coli was constructed. (2) Preparation of Recombinant Polyhistidine Tagged Human MAGL Protein
Recombinant His-hMAGL protein was prepared by transforming ECOS™ Competent E. coli BL21(DE3) (Nippon Gene Co., Ltd.) with the pET21HH(V)/His-hMGLLv2 plasmid prepared above. Escherichia coli obtained by transformation was inoculated to 10 mL of LB medium (1% peptone, 0.5% yeast extract, 0.5% sodium chloride, 0.01% ampicillin), and cultured at 30° C. for 16 hr. […] When the turbidity of the culture medium reached about 500 Klett unit, the culture temperature was lowered to 16° C., isopropyl-β-D-thiogalactopyranoside (IPTG) was added to a final concentration of 1 mM, and the mixture was further cultured for 19 hr. After the completion of culture, the culture medium was centrifuged (4° C., 6,000 rpm, 10 min) to give His-hMAGL expression Escherichia coli. Then, His-hMAGL expression Escherichia coli was suspended in 50 mM Tris-HCl (pH 8.0, 100 ml) containing 1% Triton X-100, 20 mM imidazole, 3 mM DTT, 5 U/mL Benzonase (Merck) and 150 mM NaCl, sufficiently cooled, and subjected to sonication at […]=60%, 15 sec/ON, 30 sec/OFF for 3 min using ¾″ solid type crushed horn of BRANSON Digital Sonifier 450 (Central Scientific Commerce, Inc.). Furthermore, the homogenate was centrifuged (4° C., 15,000 rpm, 15 min) and the supernatant was obtained. As the purification apparatus, AKTA explorer 10s (GE Healthcare Japan Corporation) was used at 4° C. To the obtained supernatant was added 5M NaCl to the final salt concentration of 0.3 M, and the mixture was flown through and adsorbed to 5 mL of Ni-NTA Superflow Cartridges (QIAGEN) equilibrated in advance with buffer A (50 mM Tris-HCl (pH 8.0) containing 0.05% TritonX-100, 1 mM DTT, 300 mM NaCl). The column was sufficiently washed with buffer A containing 20 mM imidazole and His-hMAGL was eluted with buffer A containing imidazole at a final concentration of 250 mM. The eluate was further subjected to gel filtration using HiLoad 26/600 Superdex 200 pg (GE Healthcare Japan Corporation) equilibrated with 50 mM Tris-HCl pH 8.0 containing 10% glycerol, 0.05% TritonX-100, 1 mM DTT, 150 mM NaCl. The eluted fraction was concentrated by Amicon Ultra-15 10K (Merck Millipore) to give purified His-hMAGL protein. The protein concentration was measured by BCA Protein Assay Kit (Thermo Fisher Scientific) using BSA as the standard.
(3) Measurement of MAGL Inhibitory Activity
His-hMAGL obtained above was diluted with enzyme reaction buffer (10 mM Tris-HCl, pH 7.5, 1 mM EDTA, 0.1 (w/v) % Triton X-100) to a concentration of 60 ng/mL. […] Thereafter, to each well was added 750 μM p-nitrophenyl acetate (Wako Pure Chemical Industries, Ltd.) by 5 μL, and the absorbance at 405 nm was measured every 2 minutes up to 10 minutes by EnVision (PerkinElmer). The amount of change was obtained by subtracting the absorbance measured immediately after the start of the reaction from the absorbance measured 10 min after the start of the reaction.
MAGL inhibitory rate (%) was calculated according to the following calculation formula. (1−(absorbance change amount of test compound addition group−absorbance change amount of enzyme addition-free group)[…](absorbance change amount of test compound addition-free group−absorbance change amount of enzyme addition-free group))×100

SMILES	inhibition at 10 µM
COc1cccc(Oc2ccc(N3CC(N4CCN(C(=O)c5nccs5)CC4)CC3=O)cc2)c1 (stereo not drawn) [Example 44, 1-(4-(3-methoxyphenoxy)phenyl)-4-(4-(1,3-thiazol-2-ylcarbonyl)piperazin-1-yl)pyrrolidin-2-one]	97%
COc1ccccc1Oc1ccc(N2CC(N3CCN(C(=O)c4nccs4)CC3)CC2=O)cc1 (stereo not drawn) [Example 45, 1-(4-(2-methoxyphenoxy)phenyl)-4-(4-(1,3-thiazol-2-ylcarbonyl)piperazin-1-yl)pyrrolidin-2-one]	97%
O=C(c1nccs1)N1CCN(C2CC(=O)N(c3ccc4[nH]ncc4c3)C2)CC1 (stereo not drawn) [Example 47, 1-(1H-indazol-5-yl)-4-(4-(1,3-thiazol-2-ylcarbonyl)piperazin-1-yl)pyrrolidin-2-one]	96%
O=C(c1nccs1)N1CCN(C2CC(=O)N(c3cnc4c(ccn4-c4ccc(F)cc4)c3)C2)CC1 (stereo not drawn) [Example 51, 1-(1-(4-fluorophenyl)-1H-pyrrolo[2,3-b]pyridin-5-yl)-4-(4-(1,3-thiazol-2-ylcarbonyl)piperazin-1-yl)pyrrolidin-2-one]	97%
O=C(c1nccs1)N1CCN(C2CC(=O)N(c3ccc4c(ccn4-c4ncc(C(F)(F)F)cn4)c3)C2)CC1 (stereo not drawn) [Example 52, 4-(4-(1,3-Thiazol-2-ylcarbonyl)piperazin-1-yl)-1-(1-(5-(trifluoromethyl)pyrimidin-2-yl)-1H-indol-5-yl)pyrrolidin-2-one]	97%
O=C(c1nccs1)N1CCN(C2CC(=O)N(c3ccc4c(ccn4-c4ccc(C(F)(F)F)cn4)c3)C2)CC1 (stereo not drawn) [Example 53, 4-(4-(1,3-Thiazol-2-ylcarbonyl)piperazin-1-yl)-1-(1-(5-(trifluoromethyl)pyridin-2-yl)-1H-indol-5-yl)pyrrolidin-2-one]	98%
O=C(c1nccs1)N1CCN(C2CC(=O)N(c3ccc(C4CC4)cc3)C2)CC1 (stereo not drawn) [Example 57, 1-(4-Cyclopropylphenyl)-4-(4-(1,3-thiazol-2-ylcarbonyl)piperazin-1-yl)pyrrolidin-2-one]	90%
O=C(c1nccs1)N1CCN(C2CC(=O)N(c3ccccc3OCc3ccccc3)C2)CC1 (stereo not drawn) [Example 58, 1-(2-(benzyloxy)phenyl)-4-(4-(1,3-thiazol-2-ylcarbonyl)piperazin-1-yl)pyrrolidin-2-one]	97%
O=C(c1nccs1)N1CCN(C2CC(=O)N(c3ccc(OCc4ccccc4)cc3)C2)CC1 (stereo not drawn) [Example 60, 1-(4-(Benzyloxy)phenyl)-4-(4-(1,3-thiazol-2-ylcarbonyl)piperazin-1-yl)pyrrolidin-2-one]	98%
O=C(c1nccs1)N1CCN(C2CC(=O)N(c3ccc(-c4ccc(Cl)cc4)cc3)C2)CC1 (stereo not drawn) [Example 63, 1-(4′-chlorobiphenyl-4-yl)-4-(4-(1,3-thiazol-2-ylcarbonyl)piperazin-1-yl)pyrrolidin-2-one]	95%
O=C(c1nccs1)N1CCN(C2CC(=O)N(c3cccc(-c4ccccn4)c3)C2)CC1 (stereo not drawn) [Example 64, 1-(3-(pyridin-2-yl)phenyl)-4-(4-(1,3-thiazol-2-ylcarbonyl)piperazin-1-yl)pyrrolidin-2-one]	90%
O=C(c1nccs1)N1CCN(C2CC(=O)N(c3cccc(-c4cccnc4)c3)C2)CC1 (stereo not drawn) [Example 65, 1-(3-(pyridin-3-yl)phenyl)-4-(4-(1,3-thiazol-2-ylcarbonyl)piperazin-1-yl)pyrrolidin-2-one]	93%
O=C(c1nccs1)N1CCN(C2CC(=O)N(c3cccc(-c4ccncc4)c3)C2)CC1 (stereo not drawn) [Example 66, 1-(3-(pyridin-4-yl)phenyl)-4-(4-(1,3-thiazol-2-ylcarbonyl)piperazin-1-yl)pyrrolidin-2-one]	91%
O=C(c1nccs1)N1CCN(C2CC(=O)N(c3cccc4ccccc34)C2)CC1 (stereo not drawn) [Example 70, 1-(1-naphthyl)-4-(4-(1,3-thiazol-2-ylcarbonyl)piperazin-1-yl)pyrrolidin-2-one]	91%
O=C(c1nccs1)N1CCN(C2CC(=O)N(c3ccc4cc(Br)ccc4c3)C2)CC1 (stereo not drawn) [Example 71, 1-(6-brorno-2-naphthyl)-4-(4-(1,3-thiazol-2-ylcarbonyl)piperazin-1-yl)pyrrolidin-2-one]	90%
O=C(c1nccs1)N1CCN(C2CC(=O)N(c3ccc4c(c3)oc3ccccc34)C2)CC1 (stereo not drawn) [Example 72, 1-(Dibenzo[b,d]furan-3-yl)-4-(4-(1,3-thiazol-2-ylcarbonyl)piperazin-1-yl)pyrrolidin-2-one]	92%
O=C(c1nccs1)N1CCN(C2CC(=O)N(c3cccc(I)c3)C2)CC1 (stereo not drawn) [Example 75, 1-(3-iodophenyl)-4-(4-(1,3-thiazol-2-ylcarbonyl)piperazin-1-yl)pyrrolidin-2-one]	95%
O=C(c1nccs1)N1CCN(C2CC(=O)N(c3cccc(-c4ccc(F)cc4)c3)C2)CC1 (stereo not drawn) [Example 76, 1-(4′-fluorobiphenyl-3-yl)-4-(4-(1,3-thiazol-2-ylcarbonyl)piperazin-1-yl)pyrrolidin-2-one]	95%
O=C(c1nccs1)N1CCN(C2CC(=O)N(c3cccc(Nc4ccc(F)cc4)c3)C2)CC1 (stereo not drawn) [Example 77, 1-(3-((4-Fluorophenyl)amino)phenyl)-4-(4-(1,3-thiazol-2-ylcarbonyl)piperazin-1-yl)pyrrolidin-2-one]	96%
O=C(c1nccs1)N1CCN(C2CC(=O)N(c3cccc(Oc4ccc(F)cc4)c3)C2)CC1 (stereo not drawn) [Example 79, 1-(3-(4-Fluorophenoxy)phenyl)-4-(4-(1,3-thiazol-2-ylcarbonyl)piperazin-1-yl)pyrrolidin-2-one]	95%
O=C(c1nccs1)N1CCN(C2CC(=O)N(c3ccc4c(cnn4-c4ccc(F)cn4)c3)C2)CC1 (stereo not drawn) [Example 81, 1-(1-(5-fluoropyridin-2-yl)-1H-indazol-5-yl)-4-(4-(1,3-thiazol-2-ylcarbonyl)piperazin-1-yl)pyrrolidin-2-one]	97%
O=C(c1nccs1)N1CCN(C2CC(=O)N(c3ccc4c(ccn4-c4ccc(F)cn4)c3)C2)CC1 (stereo not drawn) [Example 82, 1-(1-(5-fluoropyridin-2-yl)-1H-indol-5-yl)-4-(4-(1,3-thiazol-2-ylcarbonyl)piperazin-1-yl)pyrrolidin-2-one]	95%
O=C(c1nccs1)N1CCN(C2CC(=O)N(c3ccc4c(ccn4-c4ncc(F)cn4)c3)C2)CC1 (stereo not drawn) [Example 83, 1-(1-(5-fluoropyrirnidin-2-yl)-1H-indol-5-yl)-4-(4-(1,3-thiazol-2-ylcarbonyl)piperazin-1-yl)pyrrolidin-2-one]	96%
O=C(c1nccs1)N1CCN(C2CC(=O)N(c3ccc4c(ccn4-c4ncc(Cl)cn4)c3)C2)CC1 (stereo not drawn) [Example 84, 1-(1-(5-chloropyrirnidin-2-yl)-1H-indol-5-yl)-4-(4-(1,3-thiazol-2-ylcarbonyl)piperazin-1-yl)pyrrolidin-2-one]	96%

— patent publication US9624170B2, “4-(piperrazin-1-yl)-pyrrolidin-2-one compounds as monoacylglycerol lipase (MAGL) inhibitors” (TAKEDA PHARMACEUTICAL COMPANY LIMITED, priority 2013, dated 2017)
